From ChEMBL document CHEMBL1629629, “Reassessment of recommended imipenem doses in febrile neutropenic patients with hematological malignancies” (Antimicrob Agents Chemother, 2009) come the findings set out here.

One data set relates to Enterococcus. The experiment in a line: Antimicrobial activity against Enterococcus. The format is functional.
For data set [1], the species on record is Homo sapiens. The experiment in a line: T>MIC in febrile neutropenic patient with hematological malignancies at 6 g/day.
The test system of data set [2] is Homo sapiens. The data set can be described thus: T>MIC in febrile neutropenic patient with hematological malignancies at 500 mg administered as 30 mins infusion every 6 hrs. The format is functional.
Data set [3] in a line: Cmax in febrile neutropenic patient with hematological malignancies at 500 mg administered as 30 mins infusion every 6 hrs. The class given is ADME, organism-based. The arrangement: dose 500 mg. The conditions noted are these: human, in vivo, iv.
Data set [4] concerns Homo sapiens. The experiment in a line: T>MIC in febrile neutropenic patient with hematological malignancies at 500 mg administered as infusion every 6 hrs. The class given is functional.
A short description of data set [5]: Elimination half life in febrile neutropenic patient with hematological malignancies at 500 mg administered as 30 mins infusion every 6 hrs. The format is ADME, organism-based. The conditions noted are these: human, in vivo, iv.
A further data set has as its system Pseudomonas aeruginosa. The data set can be described thus: Antimicrobial activity against Pseudomonas aeruginosa. The class given is functional.
Data set [6] is described as follows: Renal clearance in febrile neutropenic patient with hematological malignancies at 500 mg administered as 30 mins infusion every 6 hrs. The format is ADME, organism-based, Kidney. The conditions noted are these: human, in vivo, iv, read-out: CL_renal (converted).
The nature of data set [7]: T>MIC in febrile neutropenic patient with hematological malignancies at 500 mg administered as infusion every 4 hrs. The class given is functional, Homo sapiens.
Data set [8] deals with Homo sapiens. The experiment in a line: T>MIC in febrile neutropenic patient with hematological malignancies at 750 mg administered as 120 mins infusion every 6 hrs. The class given is functional.

In brackets after ≈: the same amount, converted by molar mass.

In general, MIC90 refers to the lowest concentration that inhibits either 90% of growth or 90% of the strains tested, depending on the study. A higher MIC90 goes with lower susceptibility. In general, Cmax refers to the peak of the concentration-time curve. As a reminder, the half-life is the time in which the quantity being followed falls by half. `C[C@@H](O)[C@H]1C(=O)N2C(C(=O)O)=C(SCCNC=N)C[C@H]12` [IMIPENEM ANHYDROUS]: the MIC90 against Enterococcus and in the data set on Pseudomonas aeruginosa was 2 µg/mL (≈ 6.68 µM) throughout. Moreover, the “fT>MIC” value in the data set filed under Homo sapiens [1] turned out to be 90%; in the data set on Homo sapiens [2], 53%; in the data set on Homo sapiens [4], 18%; in data set [7], 73%; in the data set with Homo sapiens [8], 58%. In data set [3], this compound gave a peak concentration (Cmax) of 6600 ng/mL. The half-life in [5] is 85.8 min. Further, the CL renal in [6] is 79.8 mL/min.
